This note sets out measurements from US20060093617A1, “Peptides for inducing a CTL and/or HTL response to hepatitis C virus” (Innogenetics, N.V., priority 2004, published 2006).

The target in one assay is T1, B*0702 (Homo sapiens, UniProt P01889).
T1 construct: endogenous in cells
As to the kind of experiment: Competition binding assay using soluble HLA class I. As to conditions: for Ki: Ki (nM), HLA-B0702 section.

The next assay has as its target T2, DRB1*0101 (Homo sapiens, UniProt P01903+P01911, A100R/D57E/F55L/F60I/F76Y/I96L/L162R/M171V/P40L/Q125E/R42F/V115G/Y59C).
T2 construct: endogenous in cells; host or cells: cell lysate
In words: Competition binding assay using soluble HLA class II.

Each structure is given as a SMILES string. pIC50: −log10 of the molar value. Where a SMILES comes first, the peptide text is derived from it.

What is called pIC50 is −log10 of the IC50, conventionally taken in molar units. High values mean a low IC50, low ones a high IC50. A word on the Ki: it is the dissociation constant of the complex between target and ligand, obtained from inhibition or displacement. A low value points to a stronger hold on the target. On B*0702, `C[C@H](N)C(=O)N1CCC[C@H]1C(=O)N[C@H](C(=O)NCC(=O)N[C@@H](CO)C(=O)NCC(=O)N[C@@H](CCCCN)C(=O)N[C@@H](CO)C(=O)N[C@H](C(=O)O)[C@@H](C)O)[C@@H](C)O` (H-APTGSGKST-OH; N-terminus and C-terminus assumed) showed a negative-log IC50 (pIC50) of 6.43 and a Ki of 370 nM.
At B*0702, `CC(C)C[C@H](NC(=O)[C@H](C)NC(=O)[C@H](CCCNC(=N)N)NC(=O)[C@H](C)NC(=O)[C@H](C)N)C(=O)N[C@@H](C)C(=O)N[C@@H](Cc1c[nH]cn1)C(=O)NCC(=O)N[C@H](C(=O)O)C(C)C` (H-AARALAHGV-OH; N-terminus and C-terminus assumed) registered an inhibitory constant (Ki) of 209 nM.
On the same count and under the same terms, the value for `CSCC[C@H](NC(=O)[C@H](Cc1ccc(O)cc1)NC(=O)[C@H](C)NC(=O)CNC(=O)[C@H](Cc1ccccc1)NC(=O)CNC(=O)[C@H](CC(C)C)NC(=O)[C@@H](NC(=O)[C@H](C)N)[C@@H](C)O)C(=O)O` (H-ATLGFGAYM-OH) was 13000 nM.
On B*0702, `CC(C)C[C@H](NC(=O)CNC(=O)[C@H](CC(C)C)NC(=O)[C@H](C)NC(=O)[C@H](CO)NC(=O)[C@H](CC(C)C)NC(=O)[C@H](CCCCN)NC(=O)[C@H](C)NC(=O)[C@H](C)N)C(=O)O` (H-AAKLSALGL-OH; N-terminus and C-terminus assumed) gave a pIC50 of 6.56 and an inhibitory constant (Ki) of 277 nM.
On DRB1*0101, `CC[C@H](C)[C@H](NC(=O)[C@H](CC(N)=O)NC(=O)CNC(=O)[C@H](CC(C)C)NC(=O)[C@H](Cc1c[nH]c2ccccc12)NC(=O)[C@H](CO)NC(=O)[C@@H](N)CC(N)=O)C(=O)N[C@H](C(=O)N[C@@H](CCSC)C(=O)N[C@@H](Cc1ccc(O)cc1)C(=O)N[C@@H](C)C(=O)N1CCC[C@H]1C(=O)N[C@H](C(=O)N[C@@H](CC(C)C)C(=O)N[C@@H](Cc1c[nH]c2ccccc12)C(=O)O)[C@@H](C)O)[C@@H](C)CC` gave a pIC50 of 8.92.
Consider `CC(C)C[C@H](NC(=O)[C@@H]1CCCN1C(=O)[C@H](C)N)C(=O)NCC(=O)NCC(=O)N[C@@H](C)C(=O)N[C@@H](C)C(=O)N[C@@H](CCCNC(=N)N)C(=O)N[C@@H](C)C(=O)O`, for which, on B*0702, the pIC50 is 6.94 and the Ki was determined as 115 nM.
At DRB1*0101, `CC(C)C[C@H](NC(=O)[C@H](CCC(N)=O)NC(=O)[C@H](CO)NC(=O)[C@H](C)N)C(=O)N[C@@H](CO)C(=O)N[C@@H](C)C(=O)N1CCC[C@H]1C(=O)N[C@@H](CO)C(=O)N[C@@H](CC(C)C)C(=O)N[C@@H](CCCCN)C(=O)N[C@@H](C)C(=O)N[C@H](C(=O)N[C@@H](CS)C(=O)N[C@H](C(=O)N[C@H](C(=O)O)[C@@H](C)O)[C@@H](C)O)[C@@H](C)O` had a negative logarithm of the IC50 (pIC50) of 6.48.
At DRB1*0101, `CC(C)C[C@H](NC(=O)[C@H](C)NC(=O)CNC(=O)[C@H](C)NC(=O)[C@@H](NC(=O)CNC(=O)[C@H](C)NC(=O)CNC(=O)[C@H](Cc1ccc(O)cc1)NC(=O)CNC(=O)[C@H](C)NC(=O)[C@@H](N)CC(C)C)C(C)C)C(=O)N[C@H](C(=O)N[C@@H](C)C(=O)N[C@@H](Cc1ccccc1)C(=O)O)C(C)C` gave a negative-log IC50 (pIC50) of 6.86.
On the same count and under the same terms, in the case of `CC[C@H](C)[C@H](NC(=O)[C@H](Cc1ccc(O)cc1)NC(=O)CNC(=O)[C@H](CCSC)NC(=O)[C@H](CC(C)C)NC(=O)[C@H](CC(=O)O)NC(=O)[C@H](C)N)C(=O)N1CCC[C@H]1C(=O)N[C@@H](CC(C)C)C(=O)N[C@H](C(=O)NCC(=O)N[C@@H](C)C(=O)N1CCC[C@H]1C(=O)N[C@@H](CC(C)C)C(=O)NCC(=O)O)C(C)C` it was 5.08; in that of `CC[C@H](C)[C@H](NC(=O)[C@H](CC(N)=O)NC(=O)CNC(=O)[C@H](CC(C)C)NC(=O)[C@H](Cc1c[nH]c2ccccc12)NC(=O)[C@H](CO)NC(=O)[C@H](CC(N)=O)NC(=O)[C@@H](N)C(C)C)C(=O)N[C@H](C(=O)N[C@@H](CCSC)C(=O)N[C@@H](Cc1ccc(O)cc1)C(=O)N[C@@H](C)C(=O)N1CCC[C@H]1C(=O)N[C@H](C(=O)N[C@@H](CC(C)C)C(=O)O)[C@@H](C)O)[C@@H](C)CC`, 8.85.
Consider `CSCC[C@H](NC(=O)CNC(=O)[C@H](CO)NC(=O)[C@@H]1CCCN1C(=O)[C@H](CCCNC(=N)N)NC(=O)[C@H](CCC(=O)O)NC(=O)CNC(=O)[C@@H]1CCCN1C(=O)[C@@H](N)[C@@H](C)O)C(=O)O` (H-TPGERPSGM-OH), for which, at B*0702, the negative-log IC50 (pIC50) was 6.70 and the Ki came to 199 nM.
For `CC(C)C[C@H](NC(=O)[C@H](Cc1c[nH]cn1)NC(=O)[C@H](C)NC(=O)[C@@H](NC(=O)[C@H](CCC(N)=O)NC(=O)[C@H](Cc1ccccc1)NC(=O)[C@@H](NC(=O)[C@H](CCC(N)=O)NC(=O)[C@@H]1CCCN1)[C@@H](C)O)C(C)C)C(=O)N[C@@H](Cc1c[nH]cn1)C(=O)N[C@@H](C)C(=O)N1CCC[C@H]1C(=O)N[C@H](C(=O)NCC(=O)N[C@@H](CO)C(=O)O)[C@@H](C)O`, the negative logarithm of the IC50 (pIC50) on DRB1*0101 is 7.66.
On B*0702, `CC(C)C[C@H](NC(=O)[C@H](CCCNC(=N)N)NC(=O)[C@@H]1CCCN1C(=O)CNC(=O)[C@H](CCCNC(=N)N)NC(=O)[C@H](CCCNC(=N)N)NC(=O)[C@@H]1CCCN1C(=O)[C@@H](N)CC(C)C)C(=O)NCC(=O)O` showed a pIC50 of 6.91 and an inhibitory constant (Ki) of 124 nM.
As to `CC(C)[C@H](NC(=O)CNC(=O)[C@H](CCCNC(=N)N)NC(=O)[C@@H](NC(=O)[C@H](CS)NC(=O)[C@@H](NC(=O)[C@H](C)NC(=O)[C@H](C)NC(=O)[C@@H](N)CCCNC(=N)N)C(C)C)[C@@H](C)O)C(=O)N[C@@H](C)C(=O)N[C@@H](CCCCN)C(=O)N[C@@H](C)C(=O)N[C@H](C(=O)N[C@@H](CC(=O)O)C(=O)N[C@@H](Cc1ccccc1)C(=O)O)C(C)C`, the pIC50 on DRB1*0101 is 6.21.
As to `CC[C@H](C)[C@H](NC(=O)[C@H](Cc1c[nH]cn1)NC(=O)[C@@H](NC(=O)[C@H](CC(C)C)NC(=O)CNC(=O)[C@@H](NC(=O)[C@H](Cc1ccccc1)NC(=O)[C@@H](NC(=O)[C@H](CO)NC(=O)[C@H](CCC(=O)O)NC(=O)[C@@H](N)Cc1c[nH]c2ccccc12)C(C)C)[C@@H](C)O)[C@@H](C)O)C(=O)N[C@@H](CC(=O)O)C(=O)N[C@@H](C)C(=O)N[C@@H](Cc1c[nH]cn1)C(=O)N[C@@H](Cc1ccccc1)C(=O)O`, the pIC50 on DRB1*0101 is 6.91.
As for `CC[C@H](C)[C@H](NC(=O)[C@@H]1CCCN1C(=O)[C@H](C)NC(=O)[C@H](CC(C)C)NC(=O)[C@H](CC(C)C)NC(=O)[C@H](CCCNC(=N)N)NC(=O)[C@H](Cc1c[nH]c2ccccc12)NC(=O)CNC(=O)[C@H](CCCCN)NC(=O)[C@@H](N)CO)C(=O)N[C@H](C(=O)N[C@@H](C)C(=O)N[C@@H](Cc1ccc(O)cc1)C(=O)N[C@@H](C)C(=O)N[C@@H](CCC(N)=O)C(=O)O)[C@@H](C)O`, the pIC50 on DRB1*0101 is 9.40.
In the case of `CC(C)C[C@H](NC(=O)[C@H](CCCCN)NC(=O)[C@H](CCCNC(=N)N)NC(=O)[C@H](CC(C)C)NC(=O)[C@H](CS)NC(=O)[C@H](CO)NC(=O)[C@H](C)N)C(=O)NCC(=O)N[C@H](C(=O)N1CCC[C@H]1C(=O)N1CCC[C@H]1C(=O)N[C@@H](CC(C)C)C(=O)N[C@@H](CCCNC(=N)N)C(=O)N[C@H](C(=O)N[C@@H](Cc1c[nH]c2ccccc12)C(=O)O)C(C)C)C(C)C`, at DRB1*0101, the pIC50 is 8.31.
On the same count and under the same terms, the value for `CC(C)C[C@H](NC(=O)[C@H](CCCNC(=N)N)NC(=O)[C@H](C)NC(=O)CN)C(=O)N[C@H](C(=O)N[C@H](C(=O)N[C@@H](CC(C)C)C(=O)N[C@@H](C)C(=O)N[C@H](C(=O)N[C@@H](C)C(=O)N[C@H](C(=O)N1CCC[C@H]1C(=O)N1CCC[C@H]1C(=O)NCC(=O)N[C@@H](CO)C(=O)O)[C@@H](C)O)[C@@H](C)O)C(C)C)C(C)C` (H-GARLVVLATATPPGS-OH; N-terminus and C-terminus assumed) was 6.76.
